Measurements from PubChem BioAssay AID332 (DTP/NCI, 2004).
“And” between values parts separate entries of the source, which are not always exact repeats. Equal entries are not always repeated. Records with an inconclusive call do not appear.

Test system: mice, ADJ-PC-20 plasma cell tumor sc, T/C %
Test: NCI In Vivo Anticancer Drug Screen. Data for tumor model ADJ-PC-20 Plasma Cell (subcutaneous) in unknown mice
Conditions: endpoint: mean tumor weight, higher = larger tumour
Procedure: The antitumor activity of compounds was measured in mice bearing transplantable tumors. Survival or tumor size were measured and the results are expressed as the measurement made in the treated group (T) divided by the measurement made in the vehicle treated control group (C). The tumor model used in this assay is ADJ-PC-20 Plasma Cell (subcutaneous) in unknown mice

[1] = dose: 6.25 mg/kg/injection, schedule: Q01DX010 (ip), vehicle: carboxymethylcellulose (CMC)
[2] = dose: 7.5 mg/kg/injection, schedule: Q01DX010 (ip), vehicle: carboxymethylcellulose (CMC)
[3] = dose: 4.0 mg/kg/injection, schedule: Q01DX010 (ip), vehicle: carboxymethylcellulose (CMC)
[4] = dose: 6.25 mg/kg/injection, schedule: Q01DX010 (ip), vehicle: methylcellulose (MC)
[5] = dose: 25.0 mg/kg/injection, schedule: Q01DX010 (ip), vehicle: carboxymethylcellulose (CMC)
[6] = dose: 100.0 mg/kg/injection, schedule: Q01DX010 (ip), vehicle: carboxymethylcellulose (CMC)
[7] = dose: 5.0 mg/kg/injection, schedule: Q01DX010 (sc), vehicle: steriod suspending solution
[8] = dose: 10.0 mg/kg/injection, schedule: Q01DX010 (sc), vehicle: steriod suspending solution
[9] = dose: 8.0 mg/kg/injection, schedule: Q01DX010 (ip), vehicle: carboxymethylcellulose (CMC)
[10] = dose: 16.0 mg/kg/injection, schedule: Q01DX010 (ip), vehicle: carboxymethylcellulose (CMC)

For `CN(N=O)C(=O)NC(C=O)C(O)C(O)C(O)CO` (centres undefined), the T/C (dose: 50.0 mg/kg/injection, schedule: Q01DX010 (ip), vehicle: saline) was 68 % of control.

In the case of `S=c1nc[nH]c2nc[nH]c12`, the T/C (dose: 3.1 mg/kg/injection, schedule: Q01DX010 (ip), vehicle: other) is reported as 28 % of control, the T/C (dose: 6.2 mg/kg/injection, schedule: Q01DX010 (ip), vehicle: other) is reported as 16 % of control and the T/C (dose: 6.25 mg/kg/injection, schedule: Q01DX010 (ip), vehicle: other) is reported as 19 % of control. The T/C (dose: 6.25 mg/kg/injection, schedule: Q01DX011 (ip), vehicle: other) was 7 % of control, the T/C (dose: 12.5 mg/kg/injection, schedule: Q01DX010 (ip), vehicle: other) was 18 % of control and the T/C (dose: 12.5 mg/kg/injection, schedule: Q01DX011 (ip), vehicle: other) was 4 % of control. For the same molecule, the T/C (dose: 25.0 mg/kg/injection, schedule: Q01DX010 (ip), vehicle: other) was 9 % of control and 10 % of control, the T/C (dose: 25.0 mg/kg/injection, schedule: Q01DX011 (ip), vehicle: other) was 5 % of control and the T/C (dose: 50.0 mg/kg/injection, schedule: Q01DX011 (ip), vehicle: other) was 7 % of control.

`O=C(O)CCCc1ccc(N(CCCl)CCCl)cc1` was tested, and the T/C [1] was 120 % of control and the T/C (dose: 12.5 mg/kg/injection, schedule: Q01DX010 (ip), vehicle: carboxymethylcellulose (CMC)) was 58 % of control.

With `C[C@@H]1C[C@@H]([C@H](O)CC2CC(=O)NC(=O)C2)C(=O)[C@@H](C)C1` the T/C (dose: 1.6 mg/kg/injection, schedule: Q01DX010 (ip), vehicle: water) was 91 % of control, the T/C (dose: 3.1 mg/kg/injection, schedule: Q01DX010 (ip), vehicle: water) was 84 % of control and the T/C (dose: 6.25 mg/kg/injection, schedule: Q01DX010 (ip), vehicle: saline) was 50 % of control. For the same molecule, the T/C (dose: 6.3 mg/kg/injection, schedule: Q01DX010 (ip), vehicle: water) was 78 % of control.

With `C=CC(CN1CC1)OC(C)=O` (centres undefined) the T/C (dose: 3.75 mg/kg/injection, schedule: Q01DX010 (ip), vehicle: carboxymethylcellulose (CMC)) was 72 % of control and the T/C [2] was 40 % of control.

With `Cn1cnc([N+](=O)[O-])c1Sc1nc(N)nc2nc[nH]c12` the T/C (dose: 0.5 mg/kg/injection, schedule: Q01DX010 (ip), vehicle: carboxymethylcellulose (CMC)) was 71 % of control, the T/C (dose: 1.0 mg/kg/injection, schedule: Q01DX010 (ip), vehicle: carboxymethylcellulose (CMC)) was 33 % of control and the T/C (dose: 2.0 mg/kg/injection, schedule: Q01DX010 (ip), vehicle: carboxymethylcellulose (CMC)) was 30 % of control and 31 % of control. For the same molecule, the T/C [3] was 2 % of control.

For `CS(=O)(=O)OCCCCOS(C)(=O)=O`, the T/C [4] was 93 % of control, the T/C (dose: 12.5 mg/kg/injection, schedule: Q01DX010 (ip), vehicle: methylcellulose (MC)) was 66 % of control and the T/C (dose: 25.0 mg/kg/injection, schedule: Q01DX010 (ip), vehicle: methylcellulose (MC)) was 71 % of control and 72 % of control. For the same molecule, the T/C (dose: 50.0 mg/kg/injection, schedule: Q01DX010 (ip), vehicle: methylcellulose (MC)) was 42 % of control.

With `CN(C)c1ccc(Nc2c3ccccc3nc3ccccc23)cc1` the T/C [1] was 88 % of control, the T/C [5] was 115 % of control and the T/C [6] was 67 % of control.

With `C[C@]12CCC(=O)C=C1CC[C@H]1[C@@H]3CC[C@](O)(C(=O)CO)[C@@]3(C)C[C@H](O)[C@@]12F` the T/C (dose: 2.5 mg/kg/injection, schedule: Q01DX010 (sc), vehicle: steriod suspending solution) was 62 % of control, the T/C [7] was 43 % of control and the T/C [8] was 33 % of control.

`O=NN(CCCl)C(=O)NCCCl` was tested, and the T/C (dose: 0.8 mg/kg/injection, schedule: Q01DX010 (ip), vehicle: saline) was 102 % of control, the T/C (dose: 1.6 mg/kg/injection, schedule: Q01DX010 (ip), vehicle: saline) was 87 % of control and the T/C (dose: 6.2 mg/kg/injection, schedule: Q01DX010 (ip), vehicle: saline) was 48 % of control.

With `CC1CCOS(=O)O1` (centres undefined) the T/C (dose: 10.0 mg/kg/injection, schedule: Q01DX010 (ip), vehicle: carboxymethylcellulose (CMC)) was 65 % of control, the T/C (dose: 20.0 mg/kg/injection, schedule: Q01DX010 (ip), vehicle: carboxymethylcellulose (CMC)) was 50 % of control and the T/C (dose: 40.0 mg/kg/injection, schedule: Q01DX010 (ip), vehicle: carboxymethylcellulose (CMC)) was 32 % of control.

For `O=C(Nc1ccc(C2=NCCN2)cc1)c1ccc(C(=O)Nc2ccc(C3=NCCN3)cc2)cc1`, the T/C [5] was 73 % of control, the T/C (dose: 50.0 mg/kg/injection, schedule: Q01DX010 (ip), vehicle: carboxymethylcellulose (CMC)) was 78 % of control and the T/C [6] was 60 % of control. The T/C (dose: 200.0 mg/kg/injection, schedule: Q01DX010 (ip), vehicle: carboxymethylcellulose (CMC)) was 71 % of control.

In the case of `C[C@]12CCC(=O)C[C@H]1CC[C@@H]1[C@@H]2CC[C@@]2(C)[C@H]1CC[C@]2(C)O`, the T/C (dose: 500.0 mg/kg/injection, schedule: Q01DX010 (sc), vehicle: steriod suspending solution) is reported as 105 % of control and 119 % of control and the T/C (dose: 1000.0 mg/kg/injection, schedule: Q01DX010 (sc), vehicle: steriod suspending solution) is reported as 96 % of control.

With `CCOC(=O)NP(=O)(N1CC1(C)C)N1CC1(C)C` (centres undefined) the T/C (dose: 125.0 mg/kg/injection, schedule: Q01DX010 (ip), vehicle: carboxymethylcellulose (CMC)) was 68 % of control and the T/C (dose: 250.0 mg/kg/injection, schedule: Q01DX010 (ip), vehicle: carboxymethylcellulose (CMC)) was 20 % of control.

In the case of `c1ccc(CNc2ncnc3[nH]ncc23)cc1`, the T/C [3] is reported as 110 % of control, the T/C [9] is reported as 108 % of control and the T/C [10] is reported as 82 % of control. For the same molecule, the T/C (dose: 32.0 mg/kg/injection, schedule: Q01DX010 (ip), vehicle: carboxymethylcellulose (CMC)) was 65 % of control.

With `COC1=C(N)C(=O)c2nc(-c3nc(C(=O)O)c(C)c(-c4ccc(OC)c(OC)c4O)c3N)ccc2C1=O` the T/C (dose: 0.02 mg/kg/injection, schedule: Q01DX010 (ip), vehicle: other) was 97 % of control, the T/C (dose: 0.04 mg/kg/injection, schedule: Q01DX010 (ip), vehicle: other) was 66 % of control and the T/C (dose: 0.08 mg/kg/injection, schedule: Q01DX010 (ip), vehicle: other) was 71 % of control. For the same molecule, the T/C (dose: 0.17 mg/kg/injection, schedule: Q01DX010 (ip), vehicle: other) was 44 % of control and the T/C (dose: 0.34 mg/kg/injection, schedule: Q01DX010 (ip), vehicle: other) was 13 % of control.

`CC(=O)O[C@]1(C(C)=O)CC[C@H]2[C@@H]3C[C@H](C)C4=CC(=O)C=C[C@]4(C)[C@@]3(F)[C@@H](O)C[C@@]21C` was tested, and the T/C [7] was 82 % of control, the T/C [8] was 55 % of control and the T/C (dose: 20.0 mg/kg/injection, schedule: Q01DX010 (sc), vehicle: steriod suspending solution) was 74 % of control. For the same molecule, the T/C (dose: 40.0 mg/kg/injection, schedule: Q01DX010 (sc), vehicle: steriod suspending solution) was 73 % of control and the T/C (dose: 80.0 mg/kg/injection, schedule: Q01DX010 (sc), vehicle: steriod suspending solution) was 33 % of control.

`CCN(CC)CCNc1ccc(C)c2sc3ccccc3c(=O)c12` was tested, and the T/C (dose: 0.78 mg/kg/injection, schedule: Q01DX010 (ip), vehicle: methylcellulose (MC)) was 150 % of control, the T/C (dose: 1.56 mg/kg/injection, schedule: Q01DX010 (ip), vehicle: methylcellulose (MC)) was 194 % of control and the T/C [4] was 27 % of control.

For `CCCSc1ncnc2nc[nH]c12`, the T/C [3] was 81 % of control, the T/C [9] was 43 % of control and the T/C [10] was 28 % of control.

`O=C1CCC(N2C(=O)c3ccccc3C2=O)C(=O)N1` (centres undefined) was tested, and the T/C (dose: 18.75 mg/kg/injection, schedule: Q01DX010 (ip), vehicle: carboxymethylcellulose (CMC)) was 55 % of control, the T/C (dose: 37.5 mg/kg/injection, schedule: Q01DX010 (ip), vehicle: carboxymethylcellulose (CMC)) was 104 % of control and the T/C (dose: 75.0 mg/kg/injection, schedule: Q01DX010 (ip), vehicle: carboxymethylcellulose (CMC)) was 107 % of control. For the same molecule, the T/C (dose: 150.0 mg/kg/injection, schedule: Q01DX010 (ip), vehicle: carboxymethylcellulose (CMC)) was 82 % of control and 99 % of control, the T/C (dose: 300.0 mg/kg/injection, schedule: Q01DX010 (ip), vehicle: carboxymethylcellulose (CMC)) was 107 % of control and 113 % of control and the T/C (dose: 600.0 mg/kg/injection, schedule: Q01DX010 (ip), vehicle: carboxymethylcellulose (CMC)) was 82 % of control.

`COC12C(COC(N)=O)C3=C(C(=O)C(C)=C(N)C3=O)N1CC1C2N1C` (centres undefined) was tested, and the T/C (dose: 0.63 mg/kg/injection, schedule: Q01DX010 (ip), vehicle: carboxymethylcellulose (CMC)) was 81 % of control, the T/C (dose: 1.25 mg/kg/injection, schedule: Q01DX010 (ip), vehicle: carboxymethylcellulose (CMC)) was 43 % of control and the T/C (dose: 2.5 mg/kg/injection, schedule: Q01DX010 (ip), vehicle: carboxymethylcellulose (CMC)) was 13 % of control.

In the case of `Cc1cc(N(CCCl)CCCl)ccc1N=Nc1ccccc1C(=O)O`, the T/C (dose: 0.95 mg/kg/injection, schedule: Q01DX010 (ip), vehicle: carboxymethylcellulose (CMC)) is reported as 60 % of control, the T/C (dose: 1.9 mg/kg/injection, schedule: Q01DX010 (ip), vehicle: carboxymethylcellulose (CMC)) is reported as 56 % of control and the T/C (dose: 3.8 mg/kg/injection, schedule: Q01DX010 (ip), vehicle: carboxymethylcellulose (CMC)) is reported as 38 % of control. The T/C [2] was 25 % of control.
